Source: ChEMBL document CHEMBL3792297, “Studies on phenothiazines: New microtubule-interacting compounds with phenothiazine A-ring as potent antineoplastic agents” (Bioorg Med Chem, 2016)

Experiments:
NCI-H23 = test: Growth inhibition of human NCI-H23 cells at 10 uM after 48 hrs by SRB assay relative to control; type: functional; details: NCI-H23, 48 h, read-out: GI
786-0 = test: Growth inhibition of human 786-0 cells at 10 uM after 48 hrs by SRB assay relative to control; type: functional; details: 786-0, 48 h, read-out: GI
[1] = Growth inhibition of human TK10 cells at 10 uM after 48 hrs by SRB assay relative to control; type: functional; details: TK-10, 48 h, read-out: GI
[2] = Growth inhibition of human SW620 cells at 10 uM after 48 hrs by SRB assay relative to control; type: functional; details: SW-620, 48 h, read-out: GI
[3] = Growth inhibition of human Caki1 cells at 10 uM after 48 hrs by SRB assay relative to control; type: functional; details: CAKI-1, 48 h, read-out: GI
MDA-MB-468 = test: Growth inhibition of human MDA-MB-468 cells at 10 uM after 48 hrs by SRB assay relative to control; type: functional; details: MDA-MB-468, 48 h, read-out: GI
[4] = Growth inhibition of human HCT15 cells at 10 uM after 48 hrs by SRB assay relative to control; type: functional; details: HCT-15, 48 h, read-out: GI
[5] = Growth inhibition of human OVCAR3 cells at 10 uM after 48 hrs by SRB assay relative to control; type: functional; details: OVCAR-3, 48 h, read-out: GI
U-251 = test: Growth inhibition of human U251 cells at 10 uM after 48 hrs by SRB assay relative to control; type: functional; details: U-251, 48 h, read-out: GI
[6] = Growth inhibition of human HL-60(TB) cells at 10 uM after 48 hrs by SRB assay relative to control; type: functional; details: HL-60, 48 h, read-out: GI
SK-MEL-2 = test: Growth inhibition of human SK-MEL-2 cells at 10 uM after 48 hrs by SRB assay relative to control; type: functional; details: SK-MEL-2, 48 h, read-out: GI
K562 = test: Growth inhibition of human K562 cells at 10 uM after 48 hrs by SRB assay relative to control; type: functional; details: K562, 48 h, read-out: GI
[7] = Growth inhibition of human RPMI8226 cells at 10 uM after 48 hrs by SRB assay relative to control; type: functional; details: RPMI-8226, 48 h, read-out: GI
NCI-H226 = test: Growth inhibition of human NCI-H226 cells at 10 uM after 48 hrs by SRB assay relative to control; type: functional; details: NCI-H226, 48 h, read-out: GI
A498 = test: Growth inhibition of human A498 cells at 10 uM after 48 hrs by SRB assay relative to control; type: functional; details: A498, 48 h, read-out: GI
[8] = Growth inhibition of human SF268 cells at 10 uM after 48 hrs by SRB assay relative to control; type: functional; details: SF-268, 48 h, read-out: GI
[9] = Growth inhibition of human UO31 cells at 10 uM after 48 hrs by SRB assay relative to control; type: functional; details: UO-31, 48 h, read-out: GI
[10] = Growth inhibition of human OVCAR8 cells at 10 uM after 48 hrs by SRB assay relative to control; type: functional; details: OVCAR-8, 48 h, read-out: GI
SN12C = test: Growth inhibition of human SN12C cells at 10 uM after 48 hrs by SRB assay relative to control; type: functional; details: read-out: GI
SR = test: Growth inhibition of human SR cells at 10 uM after 48 hrs by SRB assay relative to control; type: functional; details: read-out: GI
HT-29 = test: Growth inhibition of human HT-29 cells at 10 uM after 48 hrs by SRB assay relative to control; type: functional; details: HT-29, 48 h, read-out: GI
Malme-3M = test: Growth inhibition of human MALME-3M cells at 10 uM after 48 hrs by SRB assay relative to control; type: functional; details: read-out: GI
CCRF-CEM = test: Growth inhibition of human CCRF-CEM cells at 10 uM after 48 hrs by SRB assay relative to control; type: functional; details: read-out: GI
[11] = Growth inhibition of human BT549 cells at 10 uM after 48 hrs by SRB assay relative to control; type: functional; details: BT-549, 48 h, read-out: GI
MDA-MB-435 = test: Growth inhibition of human MDA-MB-435 cells at 10 uM after 48 hrs by SRB assay relative to control; type: functional; details: MDA-MB-435, 48 h, read-out: GI
[12] = Growth inhibition of human Hs 578T cells at 10 uM after 48 hrs by SRB assay relative to control; type: functional; details: read-out: GI
[13] = Growth inhibition of human RXF393 cells at 10 uM after 48 hrs by SRB assay relative to control; type: functional; details: RXF 393, 48 h, read-out: GI
SK-MEL-5 = test: Growth inhibition of human SK-MEL-5 cells at 10 uM after 48 hrs by SRB assay relative to control; type: functional; details: SK-MEL-5, 48 h, read-out: GI
[14] = Growth inhibition of human HCT116 cells at 10 uM after 48 hrs by SRB assay relative to control; type: functional; details: HCT-116, 48 h, read-out: GI
[15] = Growth inhibition of human MOLT4 cells at 10 uM after 48 hrs by SRB assay relative to control; type: functional; details: MOLT-4, 48 h, read-out: GI
SK-MEL-28 = test: Growth inhibition of human SK-MEL-28 cells at 10 uM after 48 hrs by SRB assay relative to control; type: functional; details: SK-MEL-28, 48 h, read-out: GI
[16] = Growth inhibition of human UACC62 cells at 10 uM after 48 hrs by SRB assay relative to control; type: functional; details: UACC-62, 48 h, read-out: GI
[17] = Growth inhibition of human HOP62 cells at 10 uM after 48 hrs by SRB assay relative to control; type: functional; details: HOP-62, 48 h, read-out: GI
[18] = Growth inhibition of human HOP92 cells at 10 uM after 48 hrs by SRB assay relative to control; type: functional; details: HOP-92, 48 h, read-out: GI
KM12 = test: Growth inhibition of human KM12 cells at 10 uM after 48 hrs by SRB assay relative to control; type: functional; details: KM12, 48 h, read-out: GI
Ovis aries = species on record: Ovis aries; test: Inhibition of sheep brain tubulin polymerization at 100 uM by DAPI staining-based fluorimetric method

Structure (SMILES) | inhibition of growth at 10 µM (NCI-H23) [%] | inhibition of growth at 10 µM (786-0) [%] | inhibition of growth at 10 µM [1] [%] | inhibition of growth at 10 µM [2] [%] | inhibition of growth at 10 µM [3] [%] | inhibition of growth at 10 µM (MDA-MB-468) [%] | inhibition of growth at 10 µM [4] [%] | inhibition of growth at 10 µM [5] [%] | inhibition of growth at 10 µM (U-251) [%] | inhibition of growth at 10 µM [6] [%] | inhibition of growth at 10 µM (SK-MEL-2) [%] | inhibition of growth at 10 µM (K562) [%] | inhibition of growth at 10 µM [7] [%] | inhibition of growth at 10 µM (NCI-H226) [%] | inhibition of growth at 10 µM (A498) [%] | inhibition of growth at 10 µM [8] [%] | inhibition of growth at 10 µM [9] [%] | inhibition of growth at 10 µM [10] [%] | inhibition of growth at 10 µM (SN12C) [%] | inhibition of growth at 10 µM (SR) [%] | further results
COc1ccc(C(=O)c2ccc3c(c2)Sc2cc(C(=O)c4ccc(OC)c(F)c4)ccc2N3C)cc1F | 4 | 23 | 7 | 0 | 0 | 13 | 0 | 16 | 10 | 0 | 4 | 6 | 0 | 0 | 5 | 0 | 1 | 6 | 2 | 4 | inhibition of growth at 10 µM (HT-29): 5%; inhibition of growth at 10 µM (Malme-3M): 5%; inhibition of growth at 10 µM (CCRF-CEM): 0%; inhibition of growth at 10 µM [11]: 34%; inhibition of growth at 10 µM (MDA-MB-435): 0%; inhibition of growth at 10 µM [12]: 17%; inhibition of growth at 10 µM [13]: 2%; inhibition of growth at 10 µM (SK-MEL-5): 4%; inhibition of growth at 10 µM [14]: 2%; inhibition of growth at 10 µM [15]: 0%; inhibition of growth at 10 µM (SK-MEL-28): 0%; inhibition of growth at 10 µM [16]: 0%; inhibition of growth at 10 µM [17]: 6%; inhibition of growth at 10 µM [18]: 1%; inhibition of growth at 10 µM (KM12): 0%
O/N=C(/c1ccc2c(c1)Sc1ccccc1N2)c1c[nH]c2ccccc12 | 24 | 38 | 21 | 74 | 53 | 63 | 58 | 96 | 31 | 87 | 57 | 87 | 53 | 23 | 53 | 44 | 41 | 24 | 27 | 91 | inhibition (Ovis aries): 15%; inhibition of growth at 10 µM (HT-29): 84%; inhibition of growth at 10 µM (Malme-3M): 45%; inhibition of growth at 10 µM (CCRF-CEM): 76%; inhibition of growth at 10 µM [11]: 63%; inhibition of growth at 10 µM (MDA-MB-435): 100%; inhibition of growth at 10 µM [12]: 40%; inhibition of growth at 10 µM [13]: 24%; inhibition of growth at 10 µM (SK-MEL-5): 40%; inhibition of growth at 10 µM [14]: 64%; inhibition of growth at 10 µM [15]: 74%; inhibition of growth at 10 µM (SK-MEL-28): 31%; inhibition of growth at 10 µM [16]: 54%; inhibition of growth at 10 µM [17]: 42%; inhibition of growth at 10 µM [18]: 51%; inhibition of growth at 10 µM (KM12): 76%
